For 19 compounds, MIC results are on record in patent US11279735B2, “Cyclic peptide antibiotics” (priority 2017, dated 2022).

Structures are written as SMILES. Converted amounts (≈) assume the structure as drawn.

The test system of this assay is Escherichia coli (E. coli) strain CFT073 ATCC 700928. Type of assay: cell-based. As to conditions: ATCC 700928, 22 h. A digest of the protocol:
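Broth microdilution MIC per CLSI M07-A8 in cation-adjusted Mueller Hinton II broth with 0.002% Tween-80. Ten-point 2-fold series topped at 64, 4, 0.5 or 0.13 μg/mL depending on protocol. Final inoculum OD600 0.0005, incubated 22 h at 35 °C.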
As usually defined, the MIC is the lowest concentration found to suppress growth. Higher therefore signals a less susceptible organism. `CCCCCCCCCC[C@H]1OC(=O)CNC(=O)[C@H]([C@H](C)O)NC(=O)[C@H](CCN)NC(=O)[C@H]([C@@H](C)CC)NC(=O)[C@H](CC(C)C)N(C)C(=O)[C@@H]1C` [Example 25, (6S,9S,12S,15S,18R,19R)-9-(2-aminoethyl)-19-decyl-6-[(1S)-1-hydroxyethyl]-15-isobutyl-16,18-dimethyl-12-[(1S)-1-methylpropyl]-1-oxa-4,7,10,13,16-pentazacyclononadecane-2,5,8,11,14,17-hexone]: the MIC is 25 µM (≈ 18.1 µg/mL).
For the compound `CCCCCCCCCC[C@H]1OC(=O)CNC(=O)[C@H]([C@H](C)O)NC(=O)[C@H](CNC(=N)N)NC(=O)[C@H]([C@@H](C)CC)NC(=O)[C@H](CC(C)C)N(C)C(=O)[C@@H]1C` [Example 26, 1-[[(6S,9S,12S,15S,18R,19R)-19-decyl-6-[(1S)-1-hydroxyethyl]-15-isobutyl-16,18-dimethyl-12-[(1S)-1-methylpropyl]-2,5,8,11,14,17-hexaoxo-1-oxa-4,7,10,13,16-pentazacyclononadec-9-yl]methyl]guanidine], the MIC turned out to be 50 µM (≈ 37.6 µg/mL).
As for `CCCCCCCCCC[C@H]1OC(=O)CNC(=O)[C@H](CCO)NC(=O)[C@H](CO)NC(=O)[C@H]([C@@H](C)CC)NC(=O)[C@H](CC(C)C)N(C)C(=O)[C@@H]1C` [Example 27, (6S,9S,12S,15S,18R,19R)-19-decyl-6-(2-hydroxyethyl)-9-(hydroxymethyl)-15-isobutyl-16,18-dimethyl-12-[(1S)-1-methylpropyl]-1-oxa-4,7,10,13,16-pentazacyclononadecane-2,5,8,11,14,17-hexone], the figure is 13 µM (≈ 9.26 µg/mL); as for `CCCCCCCCCC[C@H]1OC(=O)CNC(=O)[C@H](Cc2c[nH]cn2)NC(=O)[C@H](CO)NC(=O)[C@H]([C@@H](C)CC)NC(=O)[C@H](CC(C)C)N(C)C(=O)[C@@H]1C` [Example 29, (6S,9S,12S,15S,18R,19R)-19-decyl-9-(hydroxymethyl)-6-(1H-imidazol-4-ylmethyl)-15-isobutyl-16,18-dimethyl-12-[(1S)-1-methylpropyl]-1-oxa-4,7,10,13,16-pentazacyclononadecane-2,5,8,11,14,17-hexone], 13 µM (≈ 9.72 µg/mL).
On to `CCCCCCCCCC[C@H]1OC(=O)CNC(=O)[C@H](C)NC(=O)[C@H](CO)NC(=O)[C@H]([C@@H](C)CC)NC(=O)[C@H](CC(C)C)N(C)C(=O)[C@@H]1C` [Example 30, (6S,9S,12S,15S,18R,19R)-19-decyl-9-(hydroxymethyl)-15-isobutyl-6,16,18-trimethyl-12-[(1S)-1-methylpropyl]-1-oxa-4,7,10,13,16-pentazacyclononadecane-2,5,8,11,14,17-hexone], for which the MIC was 13 µM (≈ 8.86 µg/mL).
`CCCCCCCCCC[C@H]1OC(=O)CNC(=O)[C@H](CO)NC(=O)[C@H](CO)NC(=O)[C@H]([C@@H](C)CC)NC(=O)[C@H](CCCC)N(C)C(=O)[C@@H]1C` [Example 31, (6S,9S,12S,15S,18R,19R)-15-butyl-19-decyl-6,9-bis(hydroxymethyl)-16,18-dimethyl-12-[(1S)-1-methylpropyl]-1-oxa-4,7,10,13,16-pentazacyclononadecane-2,5,8,11,14,17-hexone] had an MIC of 13 µM (≈ 9.07 µg/mL).
Compound `CCCCCCCCCC[C@H]1OC(=O)CNC(=O)[C@H]([C@H](C)O)NC(=O)[C@H](CO)NC(=O)[C@H]([C@@H](C)CC)NC(=O)[C@H](CCC)N(C)C(=O)[C@@H]1C` [Example 32, (6S,9S,12S,15S,18R,19R)-19-decyl-6-[(1S)-1-hydroxyethyl]-9-(hydroxymethyl)-16,18-dimethyl-12-[(1S)-1-methylpropyl]-15-propyl-1-oxa-4,7,10,13,16-pentazacyclononadecane-2,5,8,11,14,17-hexone] yielded an MIC of 9.4 µM (≈ 6.56 µg/mL).
Take `CCCCCCCCCC[C@H]1OC(=O)[C@H](C)NC(=O)[C@H]([C@H](C)O)NC(=O)[C@H](CO)NC(=O)[C@H]([C@@H](C)CC)NC(=O)[C@H](CC(C)C)N(C)C(=O)[C@@H]1C` [Example 33, (3S,6S,9S,12S,15S,18R,19R)-19-decyl-6-[(1S)-1-hydroxyethyl]-9-(hydroxymethyl)-15-isobutyl-3,16,18-trimethyl-12-[(1S)-1-methylpropyl]-1-oxa-4,7,10,13,16-pentazacyclononadecane-2,5,8,11,14,17-hexone]: the MIC was 13 µM (≈ 9.44 µg/mL).
`CCCCCC[C@H]1OC(=O)CNC(=O)[C@H]([C@H](C)O)NC(=O)[C@H](CN)NC(=O)[C@H]([C@H](C)CC)NC(=O)[C@H](CC(C)C)N(C)C(=O)[C@@H]1C` [Example 34, (6S,9S,12S,15S,18R,19R)-9-(aminomethyl)-19-hexyl-6-[(1S)-1-hydroxyethyl]-15-isobutyl-16,18-dimethyl-12-[(1R)-1-methylpropyl]-1-oxa-4,7,10,13,16-pentazacyclononadecane-2,5,8,11,14,17-hexone]: the MIC amounted to 9.4 µM (≈ 6.16 µg/mL).
In turn, `CCCCCCCCCCCC[C@H]1OC(=O)CNC(=O)[C@H]([C@H](C)O)NC(=O)[C@H](CO)NC(=O)[C@H]([C@@H](C)CC)NC(=O)[C@H](CC(C)C)N(C)C(=O)[C@@H]1C` [Example 35, (6S,9S,12S,15S,18R,19R)-19-dodecyl-6-[(1S)-1-hydroxyethyl]-9-(hydroxymethyl)-15-isobutyl-16,18-dimethyl-12-[(1S)-1-methylpropyl]-1-oxa-4,7,10,13,16-pentazacyclononadecane-2,5,8,11,14,17-hexone] registered an MIC of 6.3 µM (≈ 4.66 µg/mL).
In the case of `CCCCCCCCCC[C@H]1OC(=O)CNC(=O)[C@H](CO)NC(=O)[C@H](CO)NC(=O)[C@H]([C@@H](C)CC)NC(=O)[C@H](CCC)N(C)C(=O)[C@@H]1C` [Example 36, (6S,9S,12S,15S,18R,19R)-19-decyl-6,9-bis(hydroxymethyl)-16,18-dimethyl-12-[(1S)-1-methylpropyl]-15-propyl-1-oxa-4,7,10,13,16-pentazacyclononadecane-2,5,8,11,14,17-hexone], the minimum inhibitory concentration (MIC) amounted to 25 µM (≈ 17.1 µg/mL).
Turning to `CCCCCCCCCC[C@H]1OC(=O)CNC(=O)[C@H](CNC(N)=O)NC(=O)[C@H](CO)NC(=O)[C@H]([C@@H](C)CC)NC(=O)[C@H](CC(C)C)N(C)C(=O)[C@@H]1C` [Example 37, [(6S,9S,12S,15S,18R,19R)-19-decyl-9-(hydroxymethyl)-15-isobutyl-16,18-dimethyl-12-[(1S)-1-methylpropyl]-2,5,8,11,14,17-hexaoxo-1-oxa-4,7,10,13,16-pentazacyclononadec-6-yl]methylurea], the MIC is 25 µM (≈ 18.5 µg/mL).
Turning to `CCCCCCCCCC[C@H]1OC(=O)CNC(=O)[C@H](C2CCNCC2)NC(=O)[C@H](CO)NC(=O)[C@H]([C@@H](C)CC)NC(=O)[C@H](CC(C)C)N(C)C(=O)[C@@H]1C` [Example 38, (6S,9S,12S,15S,18R,19R)-19-decyl-9-(hydroxymethyl)-15-isobutyl-16,18-dimethyl-12-[(1S)-1-methylpropyl]-6-(4-piperidyl)-1-oxa-4,7,10,13,16-pentazacyclononadecane-2,5,8,11,14,17-hexone], the MIC was 50 µM (≈ 37.6 µg/mL).
On to `CCCCCCCCCC[C@H]1OC(=O)CNC(=O)[C@H](CO)NC(=O)[C@H](CO)NC(=O)[C@H](C(C)C)NC(=O)[C@H](CC(C)C)N(C)C(=O)[C@@H]1C` [Example 39, (6S,9S,12S,15S,18R,19R)-19-decyl-6,9-bis(hydroxymethyl)-15-isobutyl-12-isopropyl-16,18-dimethyl-1-oxa-4,7,10,13,16-pentazacyclononadecane-2,5,8,11,14,17-hexone], for which the MIC is 25 µM (≈ 17.1 µg/mL).
`CCCCCCCCCC[C@H]1OC(=O)CNC(=O)[C@H]([C@H](C)O)NC(=O)[C@H](CO)NC(=O)[C@H](CCC)NC(=O)[C@H](CC(C)C)N(C)C(=O)[C@@H]1C` [Example 40, (6S,9S,12S,15S,18R,19R)-19-decyl-6-((S)-1-hydroxyethyl)-9-(hydroxymethyl)-15-isobutyl-16,18-dimethyl-12-propyl-1-oxa-4,7,10,13,16-pentaazacyclononadecane-2,5,8,11,14,17-hexaone] showed an MIC of 50 µM (≈ 34.9 µg/mL).
In turn, `CCCCCCCCCC[C@H]1OC(=O)CNC(=O)[C@H](CO)NC(=O)[C@H](CO)NC(=O)[C@H](CC2CCC2)NC(=O)[C@H](CC(C)C)N(C)C(=O)[C@@H]1C` [Example 41, (6S,9S,12S,15S,18R,19R)-12-(cyclobutylmethyl)-19-decyl-6,9-bis(hydroxymethyl)-15-isobutyl-16,18-dimethyl-1-oxa-4,7,10,13,16-pentazacyclononadecane-2,5,8,11,14,17-hexone] gave an MIC of 25 µM (≈ 17.7 µg/mL).
Take `CCCC(CCC)C[C@H]1OC(=O)CNC(=O)[C@H]([C@H](C)O)NC(=O)[C@H](CO)NC(=O)[C@H]([C@H](C)CC)NC(=O)[C@H](CC(C)C)N(C)C(=O)[C@@H]1C` [Example 42, (6S,9S,12S,15S,18R,19R)-6-[(1S)-1-hydroxyethyl]-9-(hydroxymethyl)-15-isobutyl-16,18-dimethyl-12-[(1R)-1-methylpropyl]-19-(2-propylpentyl)-1-oxa-4,7,10,13,16-pentazacyclononadecane-2,5,8,11,14,17-hexone]: the MIC worked out at 50 µM (≈ 34.2 µg/mL).
Regarding `CCCCCCCCCC[C@H]1OC(=O)CNC(=O)[C@H](CO)NC(=O)[C@H](CO)NC(=O)[C@H](C(CC)CC)NC(=O)[C@H](CC(C)C)N(C)C(=O)[C@@H]1C` [Example 43, (6S,9S,12S,15S,18R,19R)-19-decyl-12-(1-ethylpropyl)-6,9-bis(hydroxymethyl)-15-isobutyl-16,18-dimethyl-1-oxa-4,7,10,13,16-pentazacyclononadecane-2,5,8,11,14,17-hexone], the MIC came to 13 µM (≈ 9.26 µg/mL).
`CC[C@H](C)[C@@H]1NC(=O)[C@H](CC(C)C)N(C)C(=O)[C@H](C)[C@@H](CCCCC(C)(C)C)OC(=O)CNC(=O)[C@H]([C@H](C)O)NC(=O)[C@H](CO)NC1=O` [Example 44, (6S,9S,12S,15S,18R,19R)-19-(5,5-dimethylhexyl)-6-[(1S)-1-hydroxyethyl]-9-(hydroxymethyl)-15-isobutyl-16,18-dimethyl-12-[(1S)-1-methylpropyl]-1-oxa-4,7,10,13,16-pentazacyclononadecane-2,5,8,11,14,17-hexone]: the MIC amounted to 25 µM (≈ 17.1 µg/mL).
